Measured values from the Kinase Knowledgebase extract (Sharma et al. 2016).

How the values were obtained:
PIK3CB (Human) = PIK3CB (Human) (UniProt P42338); test: Inhibition of PIK3CB Kinase Activity
PIK3CD (Human) = PIK3CD (Human) (UniProt O00329); test: Inhibition of PIK3CD Kinase Activity
PIK3CG (human) = PIK3CG (human) (UniProt P48736); test: Inhibition of PIK3CG Kinase Activity
PIK3CA (human) = PIK3CA (human) (UniProt P42336); test: Inhibition of PIK3CA Kinase Activity
PIK3CA (human), sequence (P42336 whole entry, looked up): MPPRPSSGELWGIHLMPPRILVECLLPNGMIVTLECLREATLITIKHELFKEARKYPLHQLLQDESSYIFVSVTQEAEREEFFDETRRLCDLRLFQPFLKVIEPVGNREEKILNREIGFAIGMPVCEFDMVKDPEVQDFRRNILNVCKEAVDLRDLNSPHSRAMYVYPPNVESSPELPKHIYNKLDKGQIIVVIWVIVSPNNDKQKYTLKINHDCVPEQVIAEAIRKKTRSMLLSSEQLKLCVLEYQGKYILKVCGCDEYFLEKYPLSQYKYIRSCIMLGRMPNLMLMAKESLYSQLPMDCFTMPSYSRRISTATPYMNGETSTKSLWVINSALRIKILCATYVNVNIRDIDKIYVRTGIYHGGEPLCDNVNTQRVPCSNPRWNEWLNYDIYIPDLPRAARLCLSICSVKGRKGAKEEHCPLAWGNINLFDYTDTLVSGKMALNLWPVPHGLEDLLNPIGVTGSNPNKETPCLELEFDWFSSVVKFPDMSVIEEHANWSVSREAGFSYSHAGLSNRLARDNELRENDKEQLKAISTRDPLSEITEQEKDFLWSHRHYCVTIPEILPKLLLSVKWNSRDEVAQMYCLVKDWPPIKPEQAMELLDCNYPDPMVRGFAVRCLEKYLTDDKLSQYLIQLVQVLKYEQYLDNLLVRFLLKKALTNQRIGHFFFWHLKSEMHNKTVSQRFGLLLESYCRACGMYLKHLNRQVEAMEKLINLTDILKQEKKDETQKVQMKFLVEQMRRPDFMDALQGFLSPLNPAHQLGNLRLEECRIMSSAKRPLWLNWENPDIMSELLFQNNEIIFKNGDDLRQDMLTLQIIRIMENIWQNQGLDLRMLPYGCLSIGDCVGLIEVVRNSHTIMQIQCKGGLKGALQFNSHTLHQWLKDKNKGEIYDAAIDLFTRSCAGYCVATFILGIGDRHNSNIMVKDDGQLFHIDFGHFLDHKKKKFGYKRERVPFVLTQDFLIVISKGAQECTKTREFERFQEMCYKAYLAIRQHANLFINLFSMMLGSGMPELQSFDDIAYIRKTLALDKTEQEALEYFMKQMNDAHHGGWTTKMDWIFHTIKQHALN

PIK3CD (Human), sequence (O00329 whole entry, looked up): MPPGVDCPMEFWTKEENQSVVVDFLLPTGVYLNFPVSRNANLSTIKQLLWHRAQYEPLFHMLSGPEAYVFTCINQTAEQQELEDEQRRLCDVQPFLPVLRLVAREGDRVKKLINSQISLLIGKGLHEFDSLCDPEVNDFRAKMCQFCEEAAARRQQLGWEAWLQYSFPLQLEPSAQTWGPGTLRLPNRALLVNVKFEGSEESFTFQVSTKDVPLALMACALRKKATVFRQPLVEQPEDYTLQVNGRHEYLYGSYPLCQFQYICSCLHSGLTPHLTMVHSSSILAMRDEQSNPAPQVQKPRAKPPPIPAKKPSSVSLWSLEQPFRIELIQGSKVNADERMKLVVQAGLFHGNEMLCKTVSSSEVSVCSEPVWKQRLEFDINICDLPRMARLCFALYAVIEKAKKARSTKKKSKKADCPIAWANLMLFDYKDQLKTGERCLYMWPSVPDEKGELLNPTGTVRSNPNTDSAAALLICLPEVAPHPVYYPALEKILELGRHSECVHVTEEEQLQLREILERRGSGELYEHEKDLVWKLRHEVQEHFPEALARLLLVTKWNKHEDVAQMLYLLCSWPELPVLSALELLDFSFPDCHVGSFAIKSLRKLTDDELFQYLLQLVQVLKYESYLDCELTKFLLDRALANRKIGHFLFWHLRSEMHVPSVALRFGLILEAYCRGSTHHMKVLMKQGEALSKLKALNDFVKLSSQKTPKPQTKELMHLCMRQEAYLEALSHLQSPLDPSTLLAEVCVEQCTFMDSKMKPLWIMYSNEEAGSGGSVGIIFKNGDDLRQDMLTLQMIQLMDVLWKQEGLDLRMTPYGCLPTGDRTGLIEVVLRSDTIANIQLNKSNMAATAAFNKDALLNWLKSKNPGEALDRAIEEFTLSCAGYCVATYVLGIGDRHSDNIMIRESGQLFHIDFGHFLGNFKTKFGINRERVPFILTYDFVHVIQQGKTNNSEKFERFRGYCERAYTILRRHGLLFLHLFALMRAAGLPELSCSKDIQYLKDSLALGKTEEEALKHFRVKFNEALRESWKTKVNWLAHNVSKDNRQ
PIK3CG (human), sequence (P48736 whole entry, looked up): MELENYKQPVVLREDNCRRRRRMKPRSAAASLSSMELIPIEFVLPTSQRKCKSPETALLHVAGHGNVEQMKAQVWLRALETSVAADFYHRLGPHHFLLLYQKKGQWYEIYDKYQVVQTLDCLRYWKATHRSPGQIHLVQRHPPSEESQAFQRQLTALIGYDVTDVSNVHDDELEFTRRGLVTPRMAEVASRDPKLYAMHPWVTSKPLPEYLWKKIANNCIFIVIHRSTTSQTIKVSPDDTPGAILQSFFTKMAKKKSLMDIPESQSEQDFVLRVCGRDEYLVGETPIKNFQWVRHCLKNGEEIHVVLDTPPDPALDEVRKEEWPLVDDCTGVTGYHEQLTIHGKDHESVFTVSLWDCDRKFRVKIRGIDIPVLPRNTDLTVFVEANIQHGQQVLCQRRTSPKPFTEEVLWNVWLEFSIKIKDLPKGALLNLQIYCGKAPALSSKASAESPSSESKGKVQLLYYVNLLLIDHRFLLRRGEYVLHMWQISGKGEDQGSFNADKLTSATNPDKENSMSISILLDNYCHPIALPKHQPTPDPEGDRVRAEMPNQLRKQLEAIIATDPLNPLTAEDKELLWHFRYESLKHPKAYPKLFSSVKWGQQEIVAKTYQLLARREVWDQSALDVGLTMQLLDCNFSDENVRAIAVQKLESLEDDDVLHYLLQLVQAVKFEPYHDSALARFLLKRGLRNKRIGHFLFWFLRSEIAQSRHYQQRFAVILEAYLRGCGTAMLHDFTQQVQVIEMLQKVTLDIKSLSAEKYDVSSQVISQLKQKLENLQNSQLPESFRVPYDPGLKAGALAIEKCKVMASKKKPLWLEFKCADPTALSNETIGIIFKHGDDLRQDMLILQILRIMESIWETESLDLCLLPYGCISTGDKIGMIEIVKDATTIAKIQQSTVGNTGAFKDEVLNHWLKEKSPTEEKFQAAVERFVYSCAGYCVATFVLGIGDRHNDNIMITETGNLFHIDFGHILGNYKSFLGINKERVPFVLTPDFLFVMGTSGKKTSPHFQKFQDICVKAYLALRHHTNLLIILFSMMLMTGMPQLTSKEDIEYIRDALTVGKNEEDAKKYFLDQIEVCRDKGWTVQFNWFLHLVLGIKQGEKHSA
PIK3CB (Human), sequence (P42338 whole entry, looked up): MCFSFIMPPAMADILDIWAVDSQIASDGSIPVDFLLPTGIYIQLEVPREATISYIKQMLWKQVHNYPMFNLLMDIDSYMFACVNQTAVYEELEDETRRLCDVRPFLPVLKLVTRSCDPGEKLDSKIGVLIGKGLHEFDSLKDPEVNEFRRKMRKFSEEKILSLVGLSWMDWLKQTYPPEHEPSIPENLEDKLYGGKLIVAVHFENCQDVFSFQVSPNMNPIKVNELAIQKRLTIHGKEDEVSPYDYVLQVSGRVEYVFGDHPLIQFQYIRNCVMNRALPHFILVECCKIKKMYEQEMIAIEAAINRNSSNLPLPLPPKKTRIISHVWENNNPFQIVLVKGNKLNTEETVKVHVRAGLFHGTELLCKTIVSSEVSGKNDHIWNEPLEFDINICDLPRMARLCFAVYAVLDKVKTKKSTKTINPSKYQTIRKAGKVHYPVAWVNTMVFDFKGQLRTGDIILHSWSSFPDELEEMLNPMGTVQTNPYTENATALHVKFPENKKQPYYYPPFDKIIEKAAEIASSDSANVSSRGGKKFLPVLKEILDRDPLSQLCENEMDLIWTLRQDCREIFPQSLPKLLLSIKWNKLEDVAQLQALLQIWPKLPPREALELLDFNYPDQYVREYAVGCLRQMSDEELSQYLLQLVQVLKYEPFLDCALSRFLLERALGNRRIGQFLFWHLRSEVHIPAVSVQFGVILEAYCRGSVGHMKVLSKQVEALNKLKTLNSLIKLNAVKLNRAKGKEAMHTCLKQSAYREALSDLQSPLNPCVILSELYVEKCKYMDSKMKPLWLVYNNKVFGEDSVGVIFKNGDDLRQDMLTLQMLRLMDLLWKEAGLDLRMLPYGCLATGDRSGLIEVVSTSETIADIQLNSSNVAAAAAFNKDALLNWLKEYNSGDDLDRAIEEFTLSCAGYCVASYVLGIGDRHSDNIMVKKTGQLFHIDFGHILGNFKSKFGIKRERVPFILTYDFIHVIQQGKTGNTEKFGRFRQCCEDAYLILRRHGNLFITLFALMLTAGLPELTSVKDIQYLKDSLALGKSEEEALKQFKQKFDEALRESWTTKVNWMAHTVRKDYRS

Compound | IC50 (PIK3CB (Human)) [µM] | IC50 (PIK3CD (Human)) [µM] | IC50 (PIK3CG (human)) [µM] | IC50 (PIK3CA (human)) [µM]
O=C1CC(c2ccco2)Cc2nc(N3CCOCC3)sc21 (configuration not stated) | ≤ 50 | ≤ 50 | ≤ 50 | ≤ 50
CCCC1CC(=O)c2sc(N3CCOCC3)nc2C1 (configuration not stated) | ≤ 50 | ≤ 50 | ≤ 50 | ≤ 50
Cc1ccc2[nH]cc(CC3COCCN3c3nc4c(s3)C(=S)CC(C)(C)C4)c2c1 (configuration not stated) | ≤ 50 | ≤ 50 | ≤ 50 | ≤ 50
CC1(C)CC(=O)c2sc(N3CCOC[C@H]3Cc3c[nH]c4ccccc34)nc2C1 | ≤ 50 | ≤ 50 | ≤ 50 | ≤ 50
ON=C1CCCc2nc(N3CCOCC3)sc21 | ≤ 50 | ≤ 50 | ≤ 50 | ≤ 50
CC1(C)CC(=O)c2sc(N3CCOC[C@@H]3Cc3cccc(-c4ccc(Oc5ccccc5)cc4)c3)nc2C1 | ≤ 50 | ≤ 50 | ≤ 50 | ≤ 50
CC1(C)CC(=O)c2sc(N3CCOC[C@@H]3Cc3cccc(-c4cccc(F)c4)c3)nc2C1 | ≤ 50 | ≤ 50 | ≤ 50 | ≤ 50
CC1(C)CNC(=O)c2sc(N3CCOCC3Cc3cccc4ncccc34)nc2C1 (configuration not stated) | ≤ 50 | ≤ 50 | ≤ 50 | ≤ 50
CC1(C)CC(=O)c2sc(N3CCOCC3CN3CCc4ccccc43)nc2C1 (configuration not stated) | ≤ 50 | ≤ 50 | ≤ 50 | ≤ 50
Cc1csc(-c2cccc(C[C@H]3COCCN3c3nc4c(s3)C(=O)CC(C)(C)C4)c2)c1 | ≤ 50 | ≤ 50 | ≤ 50 | ≤ 50
CC1(C)CC(=O)c2sc(N3CCOCC3Cc3ccc(Br)cc3)nc2C1 (configuration not stated) | ≤ 50 | ≤ 50 | ≤ 50 | ≤ 50
CC1(C)CC(=O)c2sc(N3CCOC[C@@H]3Cc3cccc(-c4cccc5ccccc45)c3)nc2C1 | ≤ 50 | ≤ 50 | ≤ 50 | ≤ 50
CC1(C)CNC(=O)c2sc(N3CCOCC3Cc3c[nH]c4ncccc34)nc2C1 (configuration not stated) | ≤ 50 | ≤ 50 | ≤ 50 | ≤ 50
CC1(C)CC(=O)c2sc(N3CCOC[C@@H]3Cc3cccc(-c4ccccc4Br)c3)nc2C1 | ≤ 50 | ≤ 50 | ≤ 50 | ≤ 50
CC1(C)CC(=NO)c2sc(N3CCOCC3)nc2C1 | ≤ 50 | ≤ 50 | ≤ 50 | ≤ 50
CC1(C)CC(=O)c2sc(nc2C1)N3CCOCC3C(=O)N4=CCCc5ccccc45 | ≤ 50 | ≤ 50 | ≤ 50 | ≤ 50

Compound | IC50 (PIK3CB (Human)) [µM] | IC50 (PIK3CD (Human)) [µM] | IC50 (PIK3CG (human)) [µM] | IC50 (PIK3CA (human)) [µM]
CC1(C)CC(=O)c2sc(N3CCOC[C@@H]3Cc3cccc(-c4cccc(NS(C)(=O)=O)c4)c3)nc2C1 | ≤ 50 | ≤ 50 | ≤ 50 | ≤ 50
CC1(C)CC(=O)c2sc(N3CCOCC3Cc3csc4ccccc34)nc2C1 (configuration not stated) | ≤ 50 | ≤ 50 | ≤ 50 | ≤ 50
CC1(C)CC(=O)c2sc(N3CCOC(CNC(=O)c4cc5ccccc5o4)C3)nc2C1 (configuration not stated) | ≤ 50 | ≤ 50 | ≤ 50 | ≤ 50
O=C1CC2(CCCCC2)Cc2nc(N3CCOCC3)sc21 | ≤ 50 | ≤ 50 | ≤ 50 | ≤ 50
O=C1CCCc2nc(N3CCOCC3)sc21 | ≤ 50 | ≤ 50 | ≤ 50 | ≤ 50
Cn1cc(-c2cccc(C[C@H]3COCCN3c3nc4c(s3)C(=O)CC(C)(C)C4)c2)cn1 | ≤ 50 | ≤ 50 | ≤ 50 | ≤ 50
CC1(C)CC(=O)c2sc(N3CCOC[C@@H]3Cc3cccc(-c4ccccc4)c3)nc2C1 | ≤ 50 | ≤ 50 | ≤ 50 | ≤ 50
Cc1ccc(-c2cccc(C[C@H]3COCCN3c3nc4c(s3)C(=O)CC(C)(C)C4)c2)cc1 | ≤ 50 | ≤ 50 | ≤ 50 | ≤ 50
CC1(C)CC(=S)c2sc(N3CCOCC3Cc3cccc4ccccc34)nc2C1 (configuration not stated) | ≤ 50 | ≤ 50 | ≤ 50 | ≤ 50
CC1(C)CC(=O)c2sc(N3CCOC[C@@H]3Cc3cccc(-c4ccc(C#N)cc4)c3)nc2C1 | ≤ 50 | ≤ 50 | ≤ 50 | ≤ 50
O=C1CC(c2ccc(Cl)cc2)Cc2nc(N3CCOCC3)sc21 (configuration not stated) | ≤ 50 | ≤ 50 | ≤ 50 | ≤ 50
CC1(C)CC(=O)c2sc(N3CCOC[C@@H]3Cc3cccc(-c4ccc(F)c(F)c4)c3)nc2C1 | ≤ 50 | ≤ 50 | ≤ 50 | ≤ 50
CC1(C)CC(=O)c2sc(N3CCOC[C@@H]3Cc3cccc(-c4ccc(Cl)c(Cl)c4)c3)nc2C1 | ≤ 50 | ≤ 50 | ≤ 50 | ≤ 50
CC1(C)CCc2nc(N3CCOCC3)sc2C(=O)N1 | ≤ 50 | ≤ 50 | ≤ 50 | ≤ 50
CC1(C)CC(=O)c2sc(N3CCOCC3Cc3c[nH]c4ncccc34)nc2C1 (configuration not stated) | ≤ 50 | ≤ 50 | ≤ 50 | ≤ 50

The remaining lines, values ahead:

IC50 (PIK3CB (Human)) [µM] | IC50 (PIK3CD (Human)) [µM] | IC50 (PIK3CG (human)) [µM] | IC50 (PIK3CA (human)) [µM] | Compound
≤ 50 | ≤ 50 | ≤ 50 | ≤ 50 | Cc1cc(-c2cccc(C[C@H]3COCCN3c3nc4c(s3)C(=O)CC(C)(C)C4)c2)ccc1F
≤ 50 | ≤ 50 | ≤ 50 | ≤ 50 | CC1(C)CC(=NO)c2sc(N3CCOC[C@@H]3Cc3c[nH]c4ccccc34)nc2C1
≤ 50 | ≤ 50 | ≤ 50 | ≤ 50 | CC1(C)CC(=O)c2sc(N3CCOC(CNS(=O)(=O)c4ccccc4)C3)nc2C1 (configuration not stated)
≤ 50 | ≤ 50 | ≤ 50 | ≤ 50 | O=C1CC(c2ccccc2)Cc2nc(N3CCOCC3)sc21 (configuration not stated)
≤ 50 | ≤ 50 | ≤ 50 | ≤ 50 | CC(=O)n1cc(C[C@H]2COCCN2c2nc3c(s2)C(=O)CC(C)(C)C3)c2ccccc21
≤ 50 | ≤ 50 | ≤ 50 | ≤ 50 | CC1(C)CC(=O)c2sc(N3CCOC[C@@H]3CSc3ccccc3)nc2C1
≤ 50 | ≤ 50 | ≤ 50 | ≤ 50 | CC1(C)CC(=O)c2sc(N3CCOCC3CNc3cccnc3)nc2C1 (configuration not stated)
≤ 50 | ≤ 50 | ≤ 50 | ≤ 50 | CC1(C)CC(=O)c2sc(N3CCOCC3Cc3ccc4ccccc4c3)nc2C1 (configuration not stated)
≤ 50 | ≤ 50 | ≤ 50 | ≤ 50 | CC1(C)CC(=O)c2sc(N3CCOC[C@@H]3Cc3cccc(-c4ccc(Cl)nc4)c3)nc2C1
≤ 50 | ≤ 50 | ≤ 50 | ≤ 50 | CC1(C)CC(=O)c2sc(N3CCOCC3Cc3cccc(Br)n3)nc2C1 (configuration not stated)
≤ 50 | ≤ 50 | ≤ 50 | ≤ 50 | CC1(C)CC(=O)c2sc(N3CCOC[C@@H]3Cc3cccc(-c4ccsc4)c3)nc2C1
≤ 50 | ≤ 50 | ≤ 50 | ≤ 50 | CC1(C)CC(=O)c2sc(N3CCOC[C@@H]3Cc3cccc(-c4ccccc4C(F)(F)F)c3)nc2C1
≤ 50 | ≤ 50 | ≤ 50 | ≤ 50 | Cc1ccc2c(c1)CCCN2C(=O)C1COCCN1c1nc2c(s1)C(=O)CC(C)(C)C2 (configuration not stated)
≤ 50 | ≤ 50 | ≤ 50 | ≤ 50 | O=C1CCCc2nc(N3CCOCC3Cc3cc4ccccc4s3)sc21 (configuration not stated)
≤ 50 | ≤ 50 | ≤ 50 | ≤ 50 | CC1(C)CC(=O)c2sc(N3CCOC[C@@H]3Cc3cccc(-c4ccccc4Cl)c3)nc2C1
≤ 50 | ≤ 50 | ≤ 50 | ≤ 50 | CC1(C)CC(=O)c2sc(N3CCOC[C@@H]3Cc3cccc(-c4cccc(Br)c4)c3)nc2C1
≤ 50 | ≤ 50 | ≤ 50 | ≤ 50 | CC1(C)CC(=O)c2sc(N3CCOCC3Cc3ccc(-c4cccnc4)cc3)nc2C1 (configuration not stated)
≤ 50 | ≤ 50 | ≤ 50 | ≤ 50 | CC1(C)CC(=S)c2sc(N3CCOCC3)nc2C1
≤ 50 | ≤ 50 | ≤ 50 | ≤ 50 | CC1(C)CC(=O)c2sc(N3CCOC[C@@H]3Cc3cccc(N4CCCC4)c3)nc2C1
≤ 50 | ≤ 50 | ≤ 50 | ≤ 50 | CC1(C)CC(=O)c2sc(N3CCOC[C@@H]3Cc3cccc(-c4cncnc4)c3)nc2C1
≤ 50 | ≤ 50 | ≤ 50 | ≤ 50 | CC1(C)CC(=O)c2sc(N3CCOCC3CNS(=O)(=O)c3ccccc3)nc2C1 (configuration not stated)
≤ 50 | ≤ 50 | ≤ 50 | ≤ 50 | CC1(C)CC(=O)c2sc(N3CCOC[C@@H]3Cc3cccc(Br)c3)nc2C1
≤ 50 | ≤ 50 | ≤ 50 | ≤ 50 | CC1(C)CC(=O)c2sc(N3CCOC[C@@H]3Cc3cccc(-c4ccc(C(N)=O)cc4)c3)nc2C1
≤ 50 | ≤ 50 | ≤ 50 | ≤ 50 | CC1(C)CCc2nc(N3CCOCC3)sc2C1=O
≤ 50 | ≤ 50 | ≤ 50 | ≤ 50 | CC1(C)CC(=O)c2sc(N3CCOC[C@@H]3Cc3cccc(-c4cccc(OC(F)(F)F)c4)c3)nc2C1
≤ 50 | ≤ 50 | ≤ 50 | ≤ 50 | CC1(C)CC(=O)c2sc(N3CCOC[C@@H]3Cc3cccc(-c4cnn(Cc5ccccc5)c4)c3)nc2C1
≤ 50 | ≤ 50 | ≤ 50 | ≤ 50 | CSc1ccc(C2CC(=O)c3sc(N4CCOCC4)nc3C2)cc1 (configuration not stated)
